Assay results published in PubChem BioAssay (NCI).
Several values for one entry are separate records, joined by “and”; a condition that tells them apart may be missing. Identical values can stand only once.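 Method: 48-hour compound exposure of cells in 96-well plates, five concentrations, linear interpolation of endpoints. The concentration for 50% growth inhibition is given as GI50. At the TGI there is no net growth.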

Tests used:
Experiment in all cases: NCI tumour cell line growth inhibition, 48 h
786-0 renal = test system: 786-0 renal
A498 renal = test system: A498 renal
A549 NSCLC = test system: A549 NSCLC
ACHN renal = test system: ACHN renal
CAKI-1 renal = test system: CAKI-1 renal
COLO 205 colon = test system: COLO 205 colon
DLD-1 colon = test system: DLD-1 colon
DMS 114 small cell lung = test system: DMS 114 small cell lung
DMS 273 small cell lung = test system: DMS 273 small cell lung
EKVX NSCLC = test system: EKVX NSCLC
HCC-2998 colon = test system: HCC-2998 colon
HCT-116 colon = test system: HCT-116 colon
HCT-15 colon = test system: HCT-15 colon
HL-60(TB) leukemia = test system: HL-60(TB) leukemia
HOP-18 NSCLC = test system: HOP-18 NSCLC
HOP-62 NSCLC = test system: HOP-62 NSCLC
HOP-92 NSCLC = test system: HOP-92 NSCLC
HT29 colon = test system: HT29 colon
IGROV1 ovarian = test system: IGROV1 ovarian
K-562 leukemia = test system: K-562 leukemia
KM12 colon = test system: KM12 colon
KM20L2 colon = test system: KM20L2 colon
LOX IMVI melanoma = test system: LOX IMVI melanoma
LXFL 529 NSCLC = test system: LXFL 529 NSCLC
M14 melanoma = test system: M14 melanoma
M19-MEL melanoma = test system: M19-MEL melanoma
MALME-3M melanoma = test system: MALME-3M melanoma
MOLT-4 leukemia = test system: MOLT-4 leukemia
NCI-H226 lung = test system: NCI-H226 lung
NCI-H23 lung = test system: NCI-H23 lung
NCI-H460 lung = test system: NCI-H460 lung
NCI-H522 lung = test system: NCI-H522 lung
OVCAR-3 ovarian = test system: OVCAR-3 ovarian
OVCAR-4 ovarian = test system: OVCAR-4 ovarian
OVCAR-5 ovarian = test system: OVCAR-5 ovarian
OVCAR-8 ovarian = test system: OVCAR-8 ovarian
RXF 393 renal = test system: RXF 393 renal
SF-268 CNS = test system: SF-268 CNS
SF-295 CNS = test system: SF-295 CNS
SF-539 CNS = test system: SF-539 CNS
SK-MEL-2 melanoma = test system: SK-MEL-2 melanoma
SK-MEL-28 melanoma = test system: SK-MEL-28 melanoma
SK-MEL-5 melanoma = test system: SK-MEL-5 melanoma
SK-OV-3 ovarian = test system: SK-OV-3 ovarian
SN12C renal = test system: SN12C renal
SNB-19 CNS = test system: SNB-19 CNS
SNB-75 CNS = test system: SNB-75 CNS
SNB-78 CNS = test system: SNB-78 CNS
SR leukemia = test system: SR leukemia
SW-620 colon = test system: SW-620 colon
TK-10 renal = test system: TK-10 renal
U251 CNS = test system: U251 CNS
UACC-257 melanoma = test system: UACC-257 melanoma
UACC-62 melanoma = test system: UACC-62 melanoma
UO-31 renal = test system: UO-31 renal
XF 498 CNS = test system: XF 498 CNS

Which results are given for COc1cc(C2c3cc4c(cc3[C@@H](Nc3ccc(N(C)C)cc3)[C@H]3COC(=O)C23)OCO4)cc(OC)c1O (some centres undefined)?
GI50 (786-0 renal): 0.362 µM; TGI (786-0 renal): 1.37 µM and 4.91 µM; GI50 (A498 renal): 0.643 µM; TGI (A498 renal): 3.42 µM and 10.2 µM; GI50 (A549 NSCLC): 0.173 µM; TGI (A549 NSCLC): 2.02 µM and 3.09 µM; GI50 (ACHN renal): 0.0694 µM; TGI (ACHN renal): 0.999 µM and 1.34 µM; GI50 (CAKI-1 renal): 0.311 µM; TGI (CAKI-1 renal): 1.03 µM and 3.42 µM; GI50 (COLO 205 colon): 3.51 µM; TGI (COLO 205 colon): 8.04 µM and 18.9 µM; GI50 (DLD-1 colon): 2.19 µM; TGI (DLD-1 colon): 9.22 µM and 12.4 µM; GI50 (DMS 114 small cell lung): 0.596 µM; TGI (DMS 114 small cell lung): 2.95 µM and 3.2 µM; GI50 (DMS 273 small cell lung): 0.202 µM; TGI (DMS 273 small cell lung): 0.877 µM and 2.47 µM; GI50 (EKVX NSCLC): 2.37 µM; TGI (EKVX NSCLC): 9.57 µM and 9.64 µM; GI50 (HCC-2998 colon): 2.36 µM; TGI (HCC-2998 colon): 3.89 µM and 8.71 µM; GI50 (HCT-116 colon): 5.52 µM; TGI (HCT-116 colon): 11.7 µM and 20.2 µM; GI50 (HCT-15 colon): 1.82 µM; TGI (HCT-15 colon): 8.16 µM and 11.3 µM; TGI (HL-60(TB) leukemia): 2.51 µM; TGI (HOP-18 NSCLC): 17 µM; GI50 (HOP-62 NSCLC): 0.187 µM; TGI (HOP-62 NSCLC): 0.385 µM and 1.23 µM; GI50 (HOP-92 NSCLC): 0.807 µM; TGI (HOP-92 NSCLC): 11.4 µM and 17 µM; GI50 (HT29 colon): 2.46 µM; TGI (HT29 colon): 4.64 µM and 11.3 µM; GI50 (IGROV1 ovarian): 4.57 µM; TGI (IGROV1 ovarian): 14.7 µM and 19.9 µM; GI50 (K-562 leukemia): 2.41 µM; TGI (K-562 leukemia): 75 µM and 36.8 µM; GI50 (KM12 colon): 3.34 µM; TGI (KM12 colon): 4.49 µM and 14.3 µM; GI50 (KM20L2 colon): 2.41 µM; TGI (KM20L2 colon): 3.02 µM and 10.7 µM; TGI (LOX IMVI melanoma): 17.6 µM; GI50 (LXFL 529 NSCLC): 6.16 µM; TGI (LXFL 529 NSCLC): 11.1 µM and 20.6 µM; GI50 (M14 melanoma): 1.44 µM; TGI (M14 melanoma): 8.61 µM and 16.2 µM; GI50 (M19-MEL melanoma): 2.53 µM; TGI (M19-MEL melanoma): 12.3 µM and 16.5 µM; GI50 (MALME-3M melanoma): 1.6 µM; TGI (MALME-3M melanoma): 12.1 µM and 15 µM; GI50 (MOLT-4 leukemia): < 0.0075 µM; GI50 (NCI-H226 lung): 0.3 µM; GI50 (NCI-H23 lung): 0.388 µM; TGI (NCI-H23 lung): 0.717 µM and 3.18 µM; GI50 (NCI-H460 lung): < 0.0075 µM; TGI (NCI-H460 lung): 1.88 µM and 10.4 µM; GI50 (NCI-H522 lung): 1.18 µM; TGI (NCI-H522 lung): 2.29 µM and 2.56 µM; TGI (OVCAR-3 ovarian): 16.9 µM; GI50 (OVCAR-4 ovarian): 13 µM; TGI (OVCAR-4 ovarian): 18.7 µM and 25.8 µM; GI50 (OVCAR-5 ovarian): 1.96 µM; TGI (OVCAR-5 ovarian): 6.21 µM and 16.2 µM; GI50 (OVCAR-8 ovarian): 1.78 µM; TGI (OVCAR-8 ovarian): 7.97 µM and 24.9 µM; TGI (RXF 393 renal): 4.33 µM; GI50 (SF-268 CNS): 3.13 µM; TGI (SF-268 CNS): 4.32 µM and 16.6 µM; GI50 (SF-295 CNS): 0.223 µM; TGI (SF-295 CNS): 0.483 µM and 1.47 µM; GI50 (SF-539 CNS): 0.572 µM; TGI (SF-539 CNS): 1.62 µM and 2.41 µM; GI50 (SK-MEL-2 melanoma): 3.58 µM; TGI (SK-MEL-2 melanoma): 9.12 µM and 12 µM; GI50 (SK-MEL-28 melanoma): 12.1 µM; TGI (SK-MEL-28 melanoma): 14.9 µM and 28.2 µM; GI50 (SK-MEL-5 melanoma): 1.12 µM; TGI (SK-MEL-5 melanoma): 2.46 µM and 4.52 µM; GI50 (SK-OV-3 ovarian): 0.279 µM; TGI (SK-OV-3 ovarian): 2.23 µM and 5.72 µM; GI50 (SN12C renal): 0.453 µM; TGI (SN12C renal): 2.41 µM and 3.64 µM; GI50 (SNB-19 CNS): 0.441 µM; TGI (SNB-19 CNS): 11.2 µM and 11.8 µM; GI50 (SNB-75 CNS): 0.881 µM; TGI (SNB-75 CNS): 9.26 µM and 10.9 µM; GI50 (SNB-78 CNS): 8.2 µM; TGI (SNB-78 CNS): 22.2 µM and 37.6 µM; TGI (SR leukemia): 0.924 µM; GI50 (SW-620 colon): 1.92 µM; TGI (SW-620 colon): 14 µM and 16.5 µM; GI50 (TK-10 renal): 8.85 µM; TGI (TK-10 renal): 11.6 µM and 27.2 µM; GI50 (U251 CNS): 0.195 µM; TGI (U251 CNS): 1.33 µM and 3.37 µM; GI50 (UACC-257 melanoma): 10.2 µM; TGI (UACC-257 melanoma): 11.2 µM and 28.8 µM; GI50 (UACC-62 melanoma): 0.347 µM; TGI (UACC-62 melanoma): 1.53 µM and 2.28 µM; GI50 (UO-31 renal): 1.47 µM; TGI (UO-31 renal): 3.27 µM and 6.69 µM; GI50 (XF 498 CNS): 2.27 µM; TGI (XF 498 CNS): 10.9 µM and 13.3 µM
